# Source: ChEMBL document CHEMBL1201862, “PubChem BioAssay data set” (2004)
# Activity calls are given as the source filed them.
# Tests used:
# [1] = biological target: T1, Fatty acid synthase (Homo sapiens, UniProt P49327); assay: inhibition of human FAS-TE enzyme activity – biochemical, endpoint fluorescence intensity, uHTS hits, dose response (AID 624327); type: functional;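 note: fluorescence from hydrolysis of an O-methyl fluorescein acyl ester substrate by the enzyme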
# [2] = biological target: T1, Fatty acid synthase; assay: inhibition of human FAS-TE enzyme activity – biochemical, kinetic fluorescence intensity, dose response (AID 624326); type: functional;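 note: rate of fluorescence rise from hydrolysis of a fluorogenic O-methyl fluorescein ester substrate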
# [3] = OVCAR-3 cell viability loss – plate reader, dry powder samples, PAX8 inhibitor project, dose response (AID 743044); type: functional, cell-based
# [4] = biological target: Paired box protein Pax-8 (Homo sapiens, UniProt Q06710); assay: PAX8 transcriptional activity inhibition in RMG-I – RMG-I cells, luciferase, cherry-pick, dose response (AID 687027); type: functional, cell-based;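 note: luciferase reporter driven by Pax8 target thyroperoxidase promoter measured by SteadyGlo luminescence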
# [5] = biological target: FAD-linked sulfhydryl oxidase ALR (Homo sapiens, UniProt P55789); assay: ALR-catalysed DTT oxidation blockers – biochemical, H2O2 detection, luminescence, cherry-pick, dose response (AID 493248)
# [6] = biological target: T2, Coagulation factor XII (Homo sapiens, UniProt P00748); type: functional;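 note: activated factor XIIa alpha cleaving a fluorogenic AMC peptide substrate; inhibitor potency from loss of enzyme activity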
# T2 sequence (P00748 whole entry): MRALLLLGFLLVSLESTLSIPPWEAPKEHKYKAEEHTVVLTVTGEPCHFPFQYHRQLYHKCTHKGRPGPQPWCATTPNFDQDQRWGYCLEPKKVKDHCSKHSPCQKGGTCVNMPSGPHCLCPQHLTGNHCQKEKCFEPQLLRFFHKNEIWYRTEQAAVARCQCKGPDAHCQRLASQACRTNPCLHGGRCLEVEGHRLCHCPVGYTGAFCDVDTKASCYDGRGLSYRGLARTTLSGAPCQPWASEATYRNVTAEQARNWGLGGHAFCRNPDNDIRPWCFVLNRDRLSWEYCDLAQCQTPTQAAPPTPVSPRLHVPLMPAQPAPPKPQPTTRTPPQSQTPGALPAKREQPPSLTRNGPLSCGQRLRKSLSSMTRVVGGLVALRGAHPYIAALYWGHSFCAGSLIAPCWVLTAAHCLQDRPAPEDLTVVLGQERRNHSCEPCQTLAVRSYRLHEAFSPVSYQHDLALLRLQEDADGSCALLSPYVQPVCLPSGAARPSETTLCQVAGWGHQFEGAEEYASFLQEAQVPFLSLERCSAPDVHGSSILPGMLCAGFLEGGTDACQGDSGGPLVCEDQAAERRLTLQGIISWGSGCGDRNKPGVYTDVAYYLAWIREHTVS
# [7] = biological target: T3, Calpain-2 catalytic subunit (Sus scrofa, UniProt P43367); assay: m-calpain protease blockers, concentration series – biochemical, fluorogenic peptide substrate, dose response (AID 1420); type: functional
# T3 sequence (P43367 whole entry): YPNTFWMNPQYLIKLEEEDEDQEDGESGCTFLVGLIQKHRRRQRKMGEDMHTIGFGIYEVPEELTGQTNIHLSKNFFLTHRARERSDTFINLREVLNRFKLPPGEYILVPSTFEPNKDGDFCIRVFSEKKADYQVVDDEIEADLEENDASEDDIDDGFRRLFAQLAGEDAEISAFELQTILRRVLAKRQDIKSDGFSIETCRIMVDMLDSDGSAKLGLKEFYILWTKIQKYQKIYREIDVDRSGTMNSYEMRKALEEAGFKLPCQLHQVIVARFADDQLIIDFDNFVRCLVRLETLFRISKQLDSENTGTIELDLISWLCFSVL
# [8] = system: HEK293; assay: EBV LMP1 TES2 canonical NF-kB signalling blockers – cell-based, HEK293, luciferase, cherry-pick, dose response (AID 588343); type: functional; conditions: Homo sapiens
# [9] = biological target: T4, Corticotropin-releasing factor receptor 2/Corticotropin-releasing factor-binding protein (Homo sapiens, UniProt P24387+Q13324); assay: activators of CRF receptor 2 with binding protein – uHTS hits, confirmation (AID 602473); type: functional; conditions: read-out: EC50_Mean
# T4 sequence (Q13324 whole entry): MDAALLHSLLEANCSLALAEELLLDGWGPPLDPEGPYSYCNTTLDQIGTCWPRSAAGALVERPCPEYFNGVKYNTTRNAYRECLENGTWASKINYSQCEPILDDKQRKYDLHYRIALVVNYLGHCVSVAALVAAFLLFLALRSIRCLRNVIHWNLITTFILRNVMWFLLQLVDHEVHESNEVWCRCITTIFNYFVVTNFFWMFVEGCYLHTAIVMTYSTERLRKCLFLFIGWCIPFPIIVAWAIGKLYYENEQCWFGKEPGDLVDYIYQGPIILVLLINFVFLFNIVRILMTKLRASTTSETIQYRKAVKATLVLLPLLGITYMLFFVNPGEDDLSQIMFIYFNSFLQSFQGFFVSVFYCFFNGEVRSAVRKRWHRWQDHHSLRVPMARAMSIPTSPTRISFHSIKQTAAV
# T4 sequence (P24387 whole entry): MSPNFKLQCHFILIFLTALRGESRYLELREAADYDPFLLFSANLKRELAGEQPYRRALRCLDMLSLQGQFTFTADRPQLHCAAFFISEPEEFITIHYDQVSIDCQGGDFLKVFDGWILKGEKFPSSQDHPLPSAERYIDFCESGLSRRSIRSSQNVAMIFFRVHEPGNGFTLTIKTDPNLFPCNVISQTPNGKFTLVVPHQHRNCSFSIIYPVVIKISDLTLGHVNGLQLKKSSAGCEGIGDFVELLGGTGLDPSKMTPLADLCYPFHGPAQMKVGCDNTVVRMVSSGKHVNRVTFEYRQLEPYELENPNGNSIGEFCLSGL
# [10] = biological target: T5, Ubiquitin-conjugating enzyme E2 N (Homo sapiens, UniProt P61088); type: functional;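 note: Dose-response confirmation in a TR-FRET assay detecting UBC13-driven polyubiquitin chain formation, inhibition measured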
# T5 sequence (P61088 whole entry): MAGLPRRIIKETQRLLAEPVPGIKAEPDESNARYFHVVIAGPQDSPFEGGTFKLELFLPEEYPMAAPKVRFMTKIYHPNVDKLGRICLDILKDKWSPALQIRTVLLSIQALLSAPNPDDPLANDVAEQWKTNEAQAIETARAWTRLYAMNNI
# [11] = blockers of bursicon-stimulated LGR2 cAMP reporter – cell-based, HEK293, CRE-luciferase reporter, cherry pick, set 2, dose response (AID 743343); type: functional;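 note: transfected cells were stimulated with diluted bursicon conditioned medium after compound addition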
# [12] = blockade of melanocortin 4 receptor signaling – cell-based, plate reader, cherry pick, counter-screen for LGR2 antagonist project, dose response (AID 743444); type: functional;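 note: transfected HEK 293 cells stimulated with alpha-MSH peptide; potency of inhibitors of the alpha-MSH evoked signal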
# [13] = Luminescence Cell-Based Dose Confirmation HTS to Identify Inhibitors of Platelet Dense Granule Release. [Related pubchem assays: 1663 (Primary HTS), 1678 (Summary of Project)]; type: functional
# [14] = biological target: Luciferin 4-monooxygenase (Photinus pyralis, UniProt P08659); assay: inhibition of purified Photinus pyralis luciferase – biochemical, luminescence, dose response (AID 1891)
# [15] = HIV-1 AD8 envelope cell-cell fusion blockers – cherry-pick, dose response (AID 652062); type: functional, cell-based;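 note: luciferase signal from cell-cell fusion driven by HIV-1 clade B AD8 Env; potency is for inhibitors of fusion seen as a drop in luminescence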
# [16] = blockers of HIV-1 ZM109 envelope-driven cell-cell fusion – HeLa effector, CEM target cells, luciferase, cherry-pick, dose response (AID 652058); type: functional, cell-based;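 note: luciferase signal from HIV-1 Env mediated cell-cell fusion of effector and target cells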
# [17] = blockers of HIV-1 envelope-mediated cell-cell fusion – cherry-pick, dose response (AID 652057); type: functional, cell-based
# [18] = system: H9c2; assay: cells; type: functional, cell-based; conditions: Rattus norvegicus, H9c2, Myocardium;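 note: confirmatory concentration-response retest of ultra-high-throughput screening hits for modulation of myocardial damage; cell death induced by hydrogen peroxide oxidative stress; compound pretreatment for 60 min then peroxide exposure for 2 h; potency is for protecting the cells against peroxide damage rather than for killing them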
# Chain of Paired box protein Pax-8 (Q06710 whole entry): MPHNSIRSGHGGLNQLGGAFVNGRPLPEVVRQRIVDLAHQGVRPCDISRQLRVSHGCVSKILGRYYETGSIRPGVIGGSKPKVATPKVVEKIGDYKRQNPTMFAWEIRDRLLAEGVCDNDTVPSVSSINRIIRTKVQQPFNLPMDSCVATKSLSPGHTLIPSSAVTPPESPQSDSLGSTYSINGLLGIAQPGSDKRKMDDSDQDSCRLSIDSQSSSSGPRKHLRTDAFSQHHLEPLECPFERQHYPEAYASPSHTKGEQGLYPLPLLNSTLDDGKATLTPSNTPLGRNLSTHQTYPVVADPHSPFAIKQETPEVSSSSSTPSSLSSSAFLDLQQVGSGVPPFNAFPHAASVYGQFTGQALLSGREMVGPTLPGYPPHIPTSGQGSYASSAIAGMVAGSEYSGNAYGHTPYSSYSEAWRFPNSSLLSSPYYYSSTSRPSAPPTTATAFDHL
# T1 sequence (P49327 whole entry): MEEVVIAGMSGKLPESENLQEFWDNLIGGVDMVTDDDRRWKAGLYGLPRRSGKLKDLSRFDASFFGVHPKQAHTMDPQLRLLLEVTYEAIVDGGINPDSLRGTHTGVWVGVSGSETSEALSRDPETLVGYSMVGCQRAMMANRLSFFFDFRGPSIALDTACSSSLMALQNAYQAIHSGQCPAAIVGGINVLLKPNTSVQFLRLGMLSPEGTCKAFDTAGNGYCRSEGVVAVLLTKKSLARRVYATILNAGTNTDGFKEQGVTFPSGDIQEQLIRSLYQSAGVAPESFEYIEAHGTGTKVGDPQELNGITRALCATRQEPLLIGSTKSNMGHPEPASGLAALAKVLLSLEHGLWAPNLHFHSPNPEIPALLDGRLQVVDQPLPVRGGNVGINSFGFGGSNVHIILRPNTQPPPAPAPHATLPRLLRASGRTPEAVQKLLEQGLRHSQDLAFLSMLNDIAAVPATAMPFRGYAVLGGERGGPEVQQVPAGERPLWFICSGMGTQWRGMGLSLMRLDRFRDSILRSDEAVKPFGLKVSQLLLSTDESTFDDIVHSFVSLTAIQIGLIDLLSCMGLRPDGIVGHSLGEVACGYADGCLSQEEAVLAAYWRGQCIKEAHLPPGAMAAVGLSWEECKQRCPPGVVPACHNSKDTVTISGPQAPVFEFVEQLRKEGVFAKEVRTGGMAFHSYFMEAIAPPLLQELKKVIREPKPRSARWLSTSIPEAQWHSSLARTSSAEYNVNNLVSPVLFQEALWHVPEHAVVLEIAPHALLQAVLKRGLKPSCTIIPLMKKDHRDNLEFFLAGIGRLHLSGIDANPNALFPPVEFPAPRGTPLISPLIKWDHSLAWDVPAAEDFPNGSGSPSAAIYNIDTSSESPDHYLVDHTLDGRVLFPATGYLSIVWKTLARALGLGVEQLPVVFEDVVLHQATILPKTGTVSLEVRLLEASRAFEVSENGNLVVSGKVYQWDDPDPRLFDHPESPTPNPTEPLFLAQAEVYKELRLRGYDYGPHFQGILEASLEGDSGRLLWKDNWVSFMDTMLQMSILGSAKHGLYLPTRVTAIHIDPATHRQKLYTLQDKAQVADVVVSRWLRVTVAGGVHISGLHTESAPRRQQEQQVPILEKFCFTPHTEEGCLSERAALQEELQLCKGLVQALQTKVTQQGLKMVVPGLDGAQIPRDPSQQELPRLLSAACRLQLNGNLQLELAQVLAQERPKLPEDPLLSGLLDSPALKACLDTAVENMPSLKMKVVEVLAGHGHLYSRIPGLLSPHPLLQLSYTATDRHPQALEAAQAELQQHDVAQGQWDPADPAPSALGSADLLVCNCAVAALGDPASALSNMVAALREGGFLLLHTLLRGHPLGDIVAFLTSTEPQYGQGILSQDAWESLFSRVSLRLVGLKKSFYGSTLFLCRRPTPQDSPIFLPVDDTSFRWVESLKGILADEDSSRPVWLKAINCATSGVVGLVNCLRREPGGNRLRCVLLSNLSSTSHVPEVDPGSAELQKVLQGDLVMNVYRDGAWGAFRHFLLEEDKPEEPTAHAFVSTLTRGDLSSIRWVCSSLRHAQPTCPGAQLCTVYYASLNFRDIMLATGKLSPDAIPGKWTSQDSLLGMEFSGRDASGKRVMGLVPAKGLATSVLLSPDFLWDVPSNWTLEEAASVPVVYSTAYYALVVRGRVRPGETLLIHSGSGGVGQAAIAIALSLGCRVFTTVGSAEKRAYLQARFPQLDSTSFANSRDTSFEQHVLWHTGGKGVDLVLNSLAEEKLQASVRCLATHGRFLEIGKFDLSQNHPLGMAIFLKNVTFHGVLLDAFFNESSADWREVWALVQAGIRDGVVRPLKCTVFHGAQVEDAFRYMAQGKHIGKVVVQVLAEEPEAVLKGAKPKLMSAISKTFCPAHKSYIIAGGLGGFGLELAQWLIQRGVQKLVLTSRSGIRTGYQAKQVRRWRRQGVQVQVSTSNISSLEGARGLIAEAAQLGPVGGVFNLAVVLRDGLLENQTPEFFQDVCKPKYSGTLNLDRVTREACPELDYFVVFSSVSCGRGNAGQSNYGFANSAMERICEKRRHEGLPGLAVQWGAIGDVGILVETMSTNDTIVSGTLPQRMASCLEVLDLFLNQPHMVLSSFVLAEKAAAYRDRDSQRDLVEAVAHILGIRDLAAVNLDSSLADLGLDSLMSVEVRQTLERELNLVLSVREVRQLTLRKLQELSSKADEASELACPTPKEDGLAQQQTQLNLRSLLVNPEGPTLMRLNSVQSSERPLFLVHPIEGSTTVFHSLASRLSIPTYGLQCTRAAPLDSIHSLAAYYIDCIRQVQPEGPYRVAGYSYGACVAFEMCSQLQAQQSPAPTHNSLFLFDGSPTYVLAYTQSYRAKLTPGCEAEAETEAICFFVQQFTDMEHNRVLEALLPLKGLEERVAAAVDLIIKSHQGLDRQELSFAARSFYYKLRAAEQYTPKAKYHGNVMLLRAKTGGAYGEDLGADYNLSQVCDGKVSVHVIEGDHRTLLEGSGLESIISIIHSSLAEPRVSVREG
# Chain of Luciferin 4-monooxygenase (P08659 whole entry, the tested form may be a part): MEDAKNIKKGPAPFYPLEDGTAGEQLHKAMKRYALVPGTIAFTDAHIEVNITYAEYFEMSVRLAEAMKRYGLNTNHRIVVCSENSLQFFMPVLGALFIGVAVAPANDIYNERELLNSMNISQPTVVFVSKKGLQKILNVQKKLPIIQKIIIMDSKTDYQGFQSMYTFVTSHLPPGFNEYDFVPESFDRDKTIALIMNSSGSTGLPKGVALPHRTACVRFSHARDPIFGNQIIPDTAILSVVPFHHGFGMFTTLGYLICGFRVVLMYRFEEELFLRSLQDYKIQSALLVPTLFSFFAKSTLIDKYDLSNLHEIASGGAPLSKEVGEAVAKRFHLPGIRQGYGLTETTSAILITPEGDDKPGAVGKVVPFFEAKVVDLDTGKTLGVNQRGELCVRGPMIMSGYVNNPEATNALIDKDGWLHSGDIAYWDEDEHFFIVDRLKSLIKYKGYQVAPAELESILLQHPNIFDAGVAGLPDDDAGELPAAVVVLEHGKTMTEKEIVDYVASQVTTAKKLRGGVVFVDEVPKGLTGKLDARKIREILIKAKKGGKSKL
# Chain of FAD-linked sulfhydryl oxidase ALR (P55789 whole entry): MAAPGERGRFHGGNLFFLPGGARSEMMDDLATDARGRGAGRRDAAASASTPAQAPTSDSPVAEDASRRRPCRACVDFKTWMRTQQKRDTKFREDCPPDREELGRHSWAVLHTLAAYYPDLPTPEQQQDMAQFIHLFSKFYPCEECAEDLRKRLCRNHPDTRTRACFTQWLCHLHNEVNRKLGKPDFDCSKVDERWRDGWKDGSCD
structure (smiles),measurement,setting,value
COc1ccc(C(=O)OC(C)C(=O)NC(C)CCc2ccccc2)cc1[N+](=O)[O-] (centres undefined),IC50,[1],19.1 µM (active)
same,IC50,[2],17.9 µM (active)
C[C@H]1CN([C@@H](C)CO)C(=O)Cc2cc(NC(=O)NC3CCCCC3)ccc2O[C@H]1CN(C)S(=O)(=O)c1ccc(Cl)cc1,AC50,[3],13.5 µM (active)
same,AC50,[4],11.9 µM (active)
CC(C)(C)c1ccc(Oc2ccc(NC(=O)CCCC(=O)O)cn2)cc1,AC50,[5],1.49 µM (active)
same,IC50,[6],> 50 µM (inactive)
Cc1noc(C)c1CSc1nc2ccccc2c(=O)n1-c1ccc(F)cc1F,IC50,[7],4.76 µM (not active)
same,IC50,[6],> 50 µM (inactive)
CCn1cc(C(=O)NCc2cccnc2)c(=O)c2cc(F)c(N3CCN(C(=O)c4ccco4)CC3)cc21,IC50,[6],> 50 µM (inactive)
O=C(O)CCN1C(=O)C2C3c4ccccc4C(c4ccccc43)[C@@H]2C1=O (some centres undefined),IC50,[6],> 50 µM (inactive)
COc1ccc(Nc2oc(COc3ccc(Cl)cc3)nc2C#N)cc1,AC50,[8],4.08 µM (active)
O=C(C[C@H]1C[C@H](C(=O)N2CCOCC2)[C@@]2(CCC3CCCC3)c3[nH]c4ccc(Cl)cc4c3CCN2C1=O)NCCN1CCOCC1,IC50,[1],2.04 µM (active)
same,EC50,[9],> 53 µM (inactive)
same,IC50,[2],2.26 µM (active)
O=C1c2cc(Cl)ccc2OC2(CCNCC2)C12CC(c1ccc(Cl)cc1)=NO2 (centres undefined),IC50,[10],> 20 µM (inactive)
CO/N=C/c1ccc(Sc2ccccc2N)c([N+](=O)[O-])c1,IC50,[7],9.01 µM (not active)
same,IC50,[6],> 50 µM (inactive)
OC1CCC(Nc2ccn3nc(-c4cccc(OCc5ccccc5)c4)cc3n2)CC1 (centres undefined),AC50,[11],34.3 µM (active)
same,AC50,[12],37.1 µM (active)
[O-][S+](NC1CCCCC1)C12CC3CC(CC(C3)C1)C2 (centres undefined),IC50,[6],> 50 µM (inactive)
COC(=O)c1sc(NC(=O)c2ccc(OC)cc2OC)nc1C,EC50,[13],0.749 µM (active)
same,AC50,[8],0.545 µM (active)
same,EC50,[14],0.251 µM (active)
COc1ccc(N2CCCn3c2nc2c3c(=O)n(Cc3ccc(C)cc3)c(=O)n2C)c(OC)c1,IC50,[6],> 50 µM (inactive)
CCc1nc2ccccc2c(C(=O)OCCN2C(=O)c3ccccc3C2=O)c1C,IC50,[10],> 20 µM (inactive)
O=C(CCNc1ccc(Br)cc1)c1cccc([N+](=O)[O-])c1,IC50,[1],13.3 µM (active)
same,IC50,[2],7.64 µM (active)
O=C(COC(=O)c1cc([N+](=O)[O-])ccc1N1CCOCC1)NCc1ccc(F)cc1,IC50,[1],1.44 µM (active)
same,IC50,[2],1.33 µM (active)
N#CC1(NC(=O)COC(=O)c2cc([N+](=O)[O-])ccc2N2CCOCC2)CCCCC1,IC50,[1],3.79 µM (active)
same,IC50,[2],2.59 µM (active)
CC(C)NC(=O)Nc1ccc2c(c1)C(=O)N([C@@H](C)CO)C[C@@H](C)[C@@H](CN(C)C(=O)CCC(F)(F)F)OCCCC[C@@H](C)O2,AC50,[15],2.7 µM (active)
same,AC50,[16],0.518 µM (active)
same,AC50,[17],0.969 µM (active)
CNC(=O)COC(=O)/C=C/c1cn(-c2ccccc2)nc1-c1ccc(C)o1,IC50,[18],> 79 µM (inactive)
same,IC50,[10],> 20 µM (inactive)
COC(=O)c1c(NC(=O)c2ccc(Br)s2)sc2c1CCC2,IC50,[6],44.4 µM (active)
O=C(Cn1nc(-c2ccco2)ccc1=O)Nc1ccc(Cl)c(Cl)c1,IC50,[1],13.1 µM (active)
same,IC50,[2],12.4 µM (active)
Cc1ccccc1Cn1cnc2c(NS(C)(=O)=O)c(C)c(C)cc21,IC50,[6],> 50 µM (inactive)
CC(C)(C)c1ccc(C(=O)N2CCC2(C)C(=O)NS(=O)(=O)c2ccc(C#N)cc2)cc1 (centres undefined),IC50,[1],9.51 µM (active)
same,IC50,[2],8.79 µM (active)
C#CCOCCOCCOCCNc1nc(N2CCN(C(=O)[C@H](CCCN=C(N)N)n3cc(C(N)[C@@H](C)CC)nn3)CC2)nc(N2CCN(C(=O)[C@H](CCCCN)n3cc([C@@H](N)CC(N)=O)nn3)CC2)n1 (some centres undefined),IC50,[10],> 20 µM (inactive)
O=C(NCc1ccc2c3c(cccc13)C(=O)N2)c1cccs1,IC50,[6],> 50 µM (inactive)
Cc1ccc(S(=O)(=O)N(C)C[C@@H]2Oc3cc(C4=CCCC4)ccc3S(=O)(=O)N([C@@H](C)CO)C[C@H]2C)cc1,AC50,[15],41.6 µM (active)
same,AC50,[16],67.6 µM (active)
same,AC50,[17],4.07 µM (active)
Cc1c(NC(=O)c2ccc(Br)o2)cccc1C(=O)O,IC50,[6],> 50 µM (inactive)
COc1ccc2c3c(n(C)c2c1)[C@@H](CO)N(C(=O)Nc1ccc(F)cc1)CC31CCN(S(=O)(=O)c2cccc(C)c2)CC1,AC50,[3],64 µM (active)
same,AC50,[4],5.97 µM (active)
Cc1c(Br)c([N+](=O)[O-])nn1CCCC(=O)N1CCN(c2ccccc2)CC1,IC50,[1],11.6 µM (active)
same,IC50,[2],13.1 µM (active)
CCOC(=O)C1CCN(C(=O)c2ccc3c(=O)n4nc(Nc5ccccc5OC)sc4nc3c2)CC1,IC50,[1],12.4 µM (active)
same,IC50,[18],> 79 µM (inactive)
same,IC50,[2],11.8 µM (active)
O=C(Oc1ccc2c(=O)c(Cl)coc2c1)c1ccncc1,IC50,[6],18 µM (active)
Cc1ccnc(NC(=O)c2sc3ccccc3c2Cl)c1,AC50,[8],1.46 µM (active)
O=C(C[C@@H]1C[C@@H]2c3cc(NC(=O)Cc4ccncc4)ccc3O[C@@H]2[C@H](CO)O1)NCc1ccc(-c2ccccc2)cc1,AC50,[3],37.8 µM (active)
same,AC50,[4],13.3 µM (active)
